From paper PMC6385087, “New Multitarget Hybrids Bearing Tacrine and Phenylbenzothiazole Motifs as Potential Drug Candidates for Alzheimer’s Disease” (Molecules, 2019)
Where two headings read alike, the source gives them in different places.

Experiments:
Aβ1–42 self-aggregation = biological target: T1, Aβ1–42 self-aggregation (Homo sapiens, UniProt P05067); experiment: Aβ1–42 self-aggregation inhibition, thioflavin T fluorescence assay; format: biochemical; conditions: for inhibition at 40 µM: read-out: Inhibition of Aβ-self-aggregation (%)
T1 construct: Commercially available Aβ1-42 peptide was obtained from Aldrich; purchased Aldrich
Protocol: […]. Since the compounds of this series presented some solubility problems in methanol, the assays were performed with ligands at concentrations of 40 µM, i.e., half of the concentration usually used (80 µM) in these assays. […]. […] So, it appears that introduction of a chloro substituent in TAC and/or a hydroxyl group in the carbon linker are not well suited for the interaction with β-sheet secondary structure of Aβ aggregates. […].
Commercially available Aβ1-42 peptide was obtained from Aldrich and stored at −20 °C. It was treated with 1,1,1,3,3,3-hexafluoropropan-2-ol (HFIP) to avoid self-aggregation and reserved. HFIP pre-treated Aβ1–42 samples were re-dissolved in CH3CN/Na2CO3 (300 µM)/NaOH (250 µM) (48.3:48.3:4.3, v/v/v) solvent mixture in order to have a stable stock solution; this solution (500 µM) was further diluted in phosphate buffer (0.215 M, pH 8.0) to obtain 40 µM solution. The ligand, which was previously dissolved in methanol, was further diluted in phosphate buffer to a final concentration of 40 µM. Aβ1–42 aggregation was determined by measuring the fluorescence emission of Thioflavin T dye, with a Cary Eclipse Varian fluorimeter (Molecular Devices, San José, CA, USA).
After incubation for 24 h at 37 °C, without stirring, the samples were added to a 96-well plate (BD Falcon) with 180 µL of 5 µM ThT in 50 mM glycine-NaOH (pH 8.5) buffer. Blank samples were prepared for each concentration in a similar way, devoid of peptide. As for the control, a sample of the peptide was incubated under identical conditions but without the inhibitor. After 5-min incubation with the dye, the ThT fluorescence was measured at the following wavelengths: 446 nm (excitation) and 486 nm (emission). The percent inhibition of the self-induced aggregation due to the presence of the test compound was calculated by Equation (2), in which IFi and IF0 corresponded to the fluorescence intensities, in the presence and the absence of the test compound, minus the fluorescence intensities due to the respective blanks. I% = 100 − (IFi/IF0 × 100)(2)
The reported values were obtained as the mean ± S.E.M. of two different experiments.

SH-SY5Y cells = experiment: Dose-response screening for non-toxic concentration, MTT reduction; format: cell-based; conditions: dose-response screening from 0.2 μM to 5 μM, 25 h
Protocol: The neuroprotective effect of TAC-PhBTA conjugates was evaluated using SH-SY5Y cells treated with Aβ1–42 peptides or ascorbate/iron. For each compound, a dose-response curve was performed to select a non-toxic concentration in order to analyze its neuroprotective effect (Figure 3).
SH-SY5Y human neuroblastoma cell line (ATCC-CRL-2266) grown in Dulbecco’s modified Eagle’s medium (DMEM) obtained from Gibco-Invitrogen (Life Technologies Ltd., Liverpool, UK) with 10% heat inactivated fetal calf serum, containing 50 U/mL penicillin, and 50 μg/mL streptomycin, under a humidified atmosphere of 95% air-5% CO2 at 37 °C. Cells were plated at 0.12 × 10^6 cells/mL for cell viability assay. […]. As a result we selected a 2.5 μM final concentration for compound 16; 0.5 μM final concentration for compound 17; 0.2 μM final concentration for compounds 14 and 15; and a 1 μM final concentration for compounds 19 and 18. […] The compounds were added to the cell media 1 h before the incubation with Aβ1–42 or ferrous sulfate/L-ascorbic acid. Aβ1–42 or ferrous sulfate/L-ascorbic acid where incubated alone or with the compound for an additional 24 h. Aβ1–42 was prepared as 276.9 μM stock in sterile water and added to the medium at 1 μM final concentration. Ferrous sulfate was freshly prepared as 0.36 M stock in water and added to the medium at 500 μM final concentration. L-Ascorbic Acid was freshly prepared as 80 mM stock in water and added to the medium at 5 mM final concentration. Aβ1–42 was purchased from Bachem (Torrance, CA, USA) and ferrous sulfate and L-ascorbic acid from Sigma Chemical Co (St. Louis, MO, USA).
Cell viability was determined by a MTT (3-(4,5-dimethylthiazol-2-yl)-2,5-diphenyltetrazolium bromide) reduction test. In viable cells, the enzyme succinate dehydrogenase metabolizes MTT into formazan that absorbs light at 570 nm. Following the cell treatment protocol the medium was aspirated and 0.5 mL MTT (0.5 mg/mL) was added to each well. The plate was then incubated at 37 °C for 1 h 30 min protected from light. At the end of the incubation period the formazan precipitates were solubilized with 0.5 mL of acidic isopropanol (0.04 M HCl/isopropanol). The absorbance was measured at 570 nm. Cell reduction ability was expressed as a percentage of untreated control cells.

AChE from electric eel = biological target: T2, AChE from electric eel (Electrophorus electricus, UniProt O42275); experiment: biochemical; conditions: means of two experiments, read-out: Inhibition of AChE (IC50)
T2 construct: commercially available enzyme AChE 500 U (extracted from electrophorus electricus); purchased type VI-S; host or cells: extracted from electric eel
Protocol: The analytical grade reagents were purchased from Sigma-Aldrich (St. Louis, MO, USA) and Acros (Thermo Fisher Scientific, Geel, Belgium) and were used without any further purification. The organic solvents were dried and distilled according to standard methods described in literature. […] The Proton and Carbon-13 NMR were recorded either on Bruker AVANCE III-300 (300 MHz and 75.5 MHz) or Bruker AVANCE III-400 (400 MHz and 100.5 MHz) NMR spectrometers (Billerica, MA, USA) at 25 °C using peaks of solvents as internal standard. The chemical shift values of protons or carbons were measured on a δ scale and the coupling constant values (J) were determined in Hertz. In the NMR representation, abbreviations are mentioned as: singlet represented by s, doublet represented by d, triplet represented by t, multiplet represented by m, double doublet represented by dd, and broad singlet represented by brs. The Leica Galen III hot stage apparatus (Leica Microsystems, Wetzlar, Germany) was used for measuring the melting points of compounds. […] The AChE inhibitory activity was measured in a 1 cm path length quartz cell through a Perkin Elmer Lambda 35 spectrophotometer equipped with a temperature programmer PTP1+1 Peltier System (T = 25.0 ± 0.1 °C) (Waltham, MA, USA). Electrospray ionization-mass (ESI-MS) measurements were carried out on a LCQ Fleet mass spectrometer (Thermo Scientific, S. Jose, CA, USA) operated in the ESI positive and negative ion modes.
Modified Ellman’s method was used as described previously for the determination of AChE activity. The AChE stock solution was prepared by dissolving commercially available enzyme AChE 500 U (extracted from electrophorus electricus) in 10 mL of TRIS buffer (50 mM, pH 8). HEPES buffer was used for the dilution of the enzyme to give the final AChE concentration. The assay solution consisted of 374 μL of 4-(2-hydroxyethyl)-1-piperazineethanesulfonic acid (Hepes) buffer (50 mM, pH 8.0), 476 μL of 3 mM bis(3-carboxy-4-nitrophenyl)disulfide (DTNB), 25 μL of AChE (type VI-S, from electric eel) stock solution, a variable volume (10–50 μL) of the compound’s stock solution (1 mg/mL of MeOH), and the necessary amount of methanol to attain the same volume of sample mixture (0.925 mL) in a 1 mL cuvette. Samples were left to react for 15 min and then the reaction was monitored at wavelength of 405 nm for 5 min, after adding 75 μL of 16 mM acetylthiocholine iodide (AChI) solution. Assays were run with a blank containing all the components except AChE, which was replaced by HEPES buffer. The velocities of the reaction were calculated as well as the enzyme activity. A control reaction was carried out using the sample solvent (methanol) in the absence of any tested compound, and it was considered as 100% activity. […] The inhibition curves were obtained by plotting the percentage of enzymatic inhibition versus inhibitor concentration and a calibration curve was obtained from which the linear regression parameters were calculated.

[1] = self-mediated Aβ42 aggregation, ThT fluorescence, CL = 40 μM, means of two experiments

T2 sequence (O42275 24-633): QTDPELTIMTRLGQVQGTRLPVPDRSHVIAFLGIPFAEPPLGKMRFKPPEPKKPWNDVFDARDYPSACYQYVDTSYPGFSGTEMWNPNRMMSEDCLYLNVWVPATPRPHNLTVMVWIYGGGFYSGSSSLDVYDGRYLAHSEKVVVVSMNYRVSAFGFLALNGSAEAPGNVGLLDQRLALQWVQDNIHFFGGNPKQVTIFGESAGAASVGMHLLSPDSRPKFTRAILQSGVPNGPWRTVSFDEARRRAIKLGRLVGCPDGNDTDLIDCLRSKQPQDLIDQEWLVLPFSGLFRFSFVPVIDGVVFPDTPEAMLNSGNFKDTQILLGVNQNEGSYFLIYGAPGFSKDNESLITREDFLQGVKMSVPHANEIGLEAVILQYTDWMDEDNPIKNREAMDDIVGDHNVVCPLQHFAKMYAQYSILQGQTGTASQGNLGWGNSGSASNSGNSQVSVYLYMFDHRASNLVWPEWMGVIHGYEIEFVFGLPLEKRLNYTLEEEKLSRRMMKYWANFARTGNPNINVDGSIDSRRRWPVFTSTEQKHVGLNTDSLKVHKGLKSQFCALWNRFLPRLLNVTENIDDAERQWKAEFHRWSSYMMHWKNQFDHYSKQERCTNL
T1 sequence (P05067 672-713 limits assumed): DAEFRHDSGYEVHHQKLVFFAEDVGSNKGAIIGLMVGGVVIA

## Nc1c2c(nc3ccccc13)CCCC2 [TAC, tacrine]
Aβ1–42 self-aggregation; read-out: Inhibition of Aβ self-aggregation (%)
  inhibition at 80 µM: 11%
Aβ1–42 self-aggregation
  inhibition at 40 µM: 11%

## COc1cc(-c2nc3ccccc3s2)ccc1OCC(=O)NCC(O)CNc1c2c(nc3ccccc13)CCCC2 (stereo not drawn) [compound 18, 2-(4-(Benzo[d]thiazol-2-yl)-2-methoxyphenoxy)-N-(2-hydroxy-3-((1,2,3,4-tetrahydroacridin-9-yl)amino)propyl)acetamide]
SH-SY5Y cells
  Highest non-toxic concentration selected: 1 µM
AChE from electric eel
  IC50: 270 nM
Aβ1–42 self-aggregation; self-mediated Aβ42 aggregation, ThT fluorescence, CL = 40 μM, means of two experiments, 40 µM
  Inhibition of Aβ-self-aggregation (%): 31.1%
Aβ1–42 self-aggregation; [1]
  inhibition at 40 µM: ~31%

## COc1cc(-c2nc3ccccc3s2)ccc1OCC(=O)NCCCNc1c2c(nc3cc(Cl)ccc13)CCCC2 [compound 17, 2-(4-(Benzo[d]thiazol-2-yl)-2-methoxyphenoxy)-N-(3-((6-chloro-1,2,3,4-tetrahydroacridin-9-yl)amino)propyl)acetamide]
SH-SY5Y cells
  Highest non-toxic concentration selected: 0.5 µM
AChE from electric eel
  IC50: 130 nM
Aβ1–42 self-aggregation; [1]
  inhibition at 40 µM: 32.5%

## COc1cc(-c2nc3ccccc3s2)ccc1OCC(=O)NCCNc1c2c(nc3ccccc13)CCCC2 [compound 14, 2-(4-(Benzo[d]thiazol-2-yl)-2-methoxyphenoxy)-N-(2-((1,2,3,4-tetrahydroacridin-9-yl)amino)ethyl)acetamide]
SH-SY5Y cells
  Highest non-toxic concentration selected: 0.2 µM
AChE from electric eel
  IC50: 110 nM
Aβ1–42 self-aggregation; [1]
  inhibition at 40 µM: 44.6%
